Results: ChEMBL document CHEMBL3885861, “Open TG-GATES”

Species on record: Rattus norvegicus
Test: Open TG-GATES - Regimen: Single
Format: toxicity, organism-based, Sprague-Dawley
Set-up: regimen Single, gender Male, age 6 weeks
Conditions: in vivo, po, 0 mg/kg, route gavage, dose level Control; for APTT / Bas / Eos / Fbg / Hb / Ht / Lym / MCH / MCHC / MCV / Mono / Neu / PT / Plat / RBC / Ret / WBC: tissue Blood; for KIDNEY_L / KIDNEY_R / KIDNEY_TOTAL: tissue Kidney; for LIVER: tissue Liver; for A/G / ALP / ALT / AST / BUN / CRE / Ca / Cl / DBIL / GLC / IP / K / LDH / Na / PL / RALB / TBIL / TC / TG / TP / gamma-GTP: tissue Plasma

Q: `CCc1oc2ccccc2c1C(=O)c1cc(I)c(O)c(I)c1` [BENZIODARONE] was tested. Which TERMINAL_BW (3 h) did it give?
A: 211.5 g

Q: What about the APTT (3 h) of the same compound?
A: 16.8 s

Q: What about the Bas (3 h) of the same compound?
A: 0%

Q: And the Eos (3 h)?
A: 0.4%

Q: And the Fbg (3 h)?
A: 205.2 mg/dL

Q: What about the Hb (3 h) of the same compound?
A: 13.7 g/dL

Q: And the Ht (3 h)?
A: 40.7%

Q: And the Lym (3 h)?
A: 81.8%

Q: And the MCH (3 h)?
A: 22 pg

Q: And the MCHC (3 h)?
A: 33.6%

Q: What about the MCV (3 h) of the same compound?
A: 65.5 fL

Q: What about the Mono (3 h) of the same compound?
A: 8%

Q: And the Neu (3 h)?
A: 9.6%

Q: And the PT (3 h)?
A: 11.9 s

Q: And the Plat (3 h)?
A: 114.1 x10_4/uL

Q: What about the RBC (3 h) of the same compound?
A: 621 x10_4/ul

Q: And the Ret (3 h)?
A: 9.1%

Q: What about the WBC (3 h) of the same compound?
A: 100.3 x10_2/uL

Q: And the KIDNEY_L (3 h)?
A: 1 g

Q: What about the KIDNEY_R (3 h) of the same compound?
A: 1 g

Q: And the KIDNEY_TOTAL (3 h)?
A: 2 g

Q: And the LIVER (3 h)?
A: 9.9 g

Q: What about the A/G (3 h) of the same compound?
A: 2.2

Q: What about the ALP (3 h) of the same compound?
A: 888.8 IU/L

Q: What about the ALT (3 h) of the same compound?
A: 33.4 IU/L

Q: What about the AST (3 h) of the same compound?
A: 64 IU/L

Q: What about the BUN (3 h) of the same compound?
A: 12.8 mg/dL

Q: And the CRE (3 h)?
A: 0.5 mg/dL

Q: What about the Ca (3 h) of the same compound?
A: 10.8 mg/dL

Q: And the Cl (3 h)?
A: 104.2 meq/L

Q: And the DBIL (3 h)?
A: 0.006 mg/dL

Q: And the GLC (3 h)?
A: 191.8 mg/dL

Q: What about the IP (3 h) of the same compound?
A: 9.6 mg/dL

Q: And the K (3 h)?
A: 4.6 meq/L

Q: And the LDH (3 h)?
A: 93.2 IU/L

Q: What about the Na (3 h) of the same compound?
A: 141.4 meq/L

Q: What about the PL (3 h) of the same compound?
A: 146 mg/dL

Q: What about the RALB (3 h) of the same compound?
A: 3.8 g/dL

Q: What about the TBIL (3 h) of the same compound?
A: 0.3 mg/dL

Q: And the TC (3 h)?
A: 79.4 mg/dL

Q: And the TG (3 h)?
A: 59.8 mg/dL

Q: What about the TP (3 h) of the same compound?
A: 5.5 g/dL

Q: And the gamma-GTP (3 h)?
A: 1.4 IU/L

Q: What about the TERMINAL_BW (6 h) of the same compound?
A: 210.7 g

Q: And the APTT (6 h)?
A: 17.7 s

Q: And the Bas (6 h)?
A: 0%

Q: What about the Eos (6 h) of the same compound?
A: 0.8%

Q: And the Fbg (6 h)?
A: 204.4 mg/dL

Q: And the Hb (6 h)?
A: 13.8 g/dL

Q: And the Ht (6 h)?
A: 41.4%

Q: And the Lym (6 h)?
A: 84%

Q: And the MCH (6 h)?
A: 21.7 pg

Q: And the MCHC (6 h)?
A: 33.3%

Q: And the MCV (6 h)?
A: 65.1 fL

Q: And the Mono (6 h)?
A: 5%

Q: What about the Neu (6 h) of the same compound?
A: 10.6%

Q: What about the PT (6 h) of the same compound?
A: 12 s

Q: And the Plat (6 h)?
A: 116.7 x10_4/uL

Q: And the RBC (6 h)?
A: 636.4 x10_4/ul

Q: What about the Ret (6 h) of the same compound?
A: 11.3%

Q: What about the WBC (6 h) of the same compound?
A: 115.5 x10_2/uL

Q: What about the KIDNEY_L (6 h) of the same compound?
A: 1 g

Q: What about the KIDNEY_R (6 h) of the same compound?
A: 1 g

Q: What about the KIDNEY_TOTAL (6 h) of the same compound?
A: 1.9 g

Q: What about the LIVER (6 h) of the same compound?
A: 9.5 g

Q: What about the A/G (6 h) of the same compound?
A: 2.2

Q: What about the ALP (6 h) of the same compound?
A: 852.8 IU/L

Q: What about the ALT (6 h) of the same compound?
A: 33 IU/L

Q: And the AST (6 h)?
A: 62 IU/L

Q: What about the BUN (6 h) of the same compound?
A: 9.8 mg/dL

Q: And the CRE (6 h)?
A: 0.5 mg/dL

Q: And the Ca (6 h)?
A: 10.6 mg/dL

Q: What about the Cl (6 h) of the same compound?
A: 104.6 meq/L

Q: What about the DBIL (6 h) of the same compound?
A: 0.046 mg/dL

Q: And the GLC (6 h)?
A: 180.2 mg/dL

Q: And the IP (6 h)?
A: 9.3 mg/dL

Q: What about the K (6 h) of the same compound?
A: 4.6 meq/L

Q: What about the LDH (6 h) of the same compound?
A: 81.2 IU/L

Q: What about the Na (6 h) of the same compound?
A: 141.4 meq/L

Q: What about the PL (6 h) of the same compound?
A: 126.6 mg/dL

Q: What about the RALB (6 h) of the same compound?
A: 3.7 g/dL

Q: And the TBIL (6 h)?
A: 0.4 mg/dL

Q: What about the TC (6 h) of the same compound?
A: 71.4 mg/dL

Q: And the TG (6 h)?
A: 57.6 mg/dL

Q: And the TP (6 h)?
A: 5.4 g/dL

Q: What about the gamma-GTP (6 h) of the same compound?
A: 1.4 IU/L

Q: And the TERMINAL_BW (9 h)?
A: 208.6 g

Q: And the APTT (9 h)?
A: 18 s

Q: And the Bas (9 h)?
A: 0%

Q: And the Eos (9 h)?
A: 1%

Q: And the Fbg (9 h)?
A: 199 mg/dL

Q: And the Hb (9 h)?
A: 13.6 g/dL

Q: What about the Ht (9 h) of the same compound?
A: 40%

Q: And the Lym (9 h)?
A: 77.6%

Q: What about the MCH (9 h) of the same compound?
A: 22.4 pg

Q: And the MCHC (9 h)?
A: 34%

Q: And the MCV (9 h)?
A: 66 fL

Q: And the Mono (9 h)?
A: 7.2%

Q: And the Neu (9 h)?
A: 14.4%

Q: And the PT (9 h)?
A: 12.3 s

Q: And the Plat (9 h)?
A: 113.9 x10_4/uL

Q: And the RBC (9 h)?
A: 606 x10_4/ul

Q: And the Ret (9 h)?
A: 8.6%

Q: And the WBC (9 h)?
A: 92 x10_2/uL

Q: And the KIDNEY_L (9 h)?
A: 1 g

Q: What about the KIDNEY_R (9 h) of the same compound?
A: 1 g

Q: What about the KIDNEY_TOTAL (9 h) of the same compound?
A: 1.9 g

Q: What about the LIVER (9 h) of the same compound?
A: 8.7 g

Q: And the A/G (9 h)?
A: 2.3

Q: What about the ALP (9 h) of the same compound?
A: 824.8 IU/L

Q: What about the ALT (9 h) of the same compound?
A: 30.8 IU/L

Q: What about the AST (9 h) of the same compound?
A: 62 IU/L

Q: And the BUN (9 h)?
A: 9.8 mg/dL

Q: And the CRE (9 h)?
A: 0.5 mg/dL

Q: What about the Ca (9 h) of the same compound?
A: 10.3 mg/dL

Q: And the Cl (9 h)?
A: 105.6 meq/L

Q: What about the DBIL (9 h) of the same compound?
A: 0.062 mg/dL

Q: What about the GLC (9 h) of the same compound?
A: 191.8 mg/dL

Q: And the IP (9 h)?
A: 10.9 mg/dL

Q: And the K (9 h)?
A: 4.5 meq/L

Q: What about the LDH (9 h) of the same compound?
A: 67 IU/L

Q: What about the Na (9 h) of the same compound?
A: 142.4 meq/L

Q: What about the PL (9 h) of the same compound?
A: 128 mg/dL

Q: And the RALB (9 h)?
A: 3.7 g/dL

Q: And the TBIL (9 h)?
A: 0.3 mg/dL

Q: And the TC (9 h)?
A: 71.2 mg/dL

Q: And the TG (9 h)?
A: 32.8 mg/dL

Q: And the TP (9 h)?
A: 5.3 g/dL

Q: What about the gamma-GTP (9 h) of the same compound?
A: 0.8 IU/L

Q: What about the TERMINAL_BW (24 h) of the same compound?
A: 224.5 g

Q: And the APTT (24 h)?
A: 16.7 s

Q: What about the Bas (24 h) of the same compound?
A: 0%

Q: And the Eos (24 h)?
A: 1.2%

Q: What about the Fbg (24 h) of the same compound?
A: 203.6 mg/dL

Q: And the Hb (24 h)?
A: 13.3 g/dL

Q: What about the Ht (24 h) of the same compound?
A: 39.4%

Q: What about the Lym (24 h) of the same compound?
A: 75.8%

Q: And the MCH (24 h)?
A: 22 pg

Q: And the MCHC (24 h)?
A: 33.8%

Q: What about the MCV (24 h) of the same compound?
A: 65.2 fL

Q: What about the Mono (24 h) of the same compound?
A: 7.2%

Q: What about the Neu (24 h) of the same compound?
A: 16.2%

Q: What about the PT (24 h) of the same compound?
A: 11.8 s

Q: What about the Plat (24 h) of the same compound?
A: 117.5 x10_4/uL

Q: What about the RBC (24 h) of the same compound?
A: 604.6 x10_4/ul

Q: And the Ret (24 h)?
A: 8.8%

Q: What about the WBC (24 h) of the same compound?
A: 109.7 x10_2/uL

Q: And the KIDNEY_L (24 h)?
A: 1 g

Q: What about the KIDNEY_R (24 h) of the same compound?
A: 1 g

Q: And the KIDNEY_TOTAL (24 h)?
A: 2 g

Q: And the LIVER (24 h)?
A: 10.8 g

Q: And the A/G (24 h)?
A: 2.1

Q: And the ALP (24 h)?
A: 1056.6 IU/L

Q: And the ALT (24 h)?
A: 37.8 IU/L

Q: And the AST (24 h)?
A: 66 IU/L

Q: What about the BUN (24 h) of the same compound?
A: 17.6 mg/dL

Q: And the CRE (24 h)?
A: 0.5 mg/dL

Q: And the Ca (24 h)?
A: 10.7 mg/dL

Q: And the Cl (24 h)?
A: 105.6 meq/L

Q: What about the DBIL (24 h) of the same compound?
A: 0.008 mg/dL

Q: And the GLC (24 h)?
A: 200.6 mg/dL

Q: And the IP (24 h)?
A: 7.6 mg/dL

Q: And the K (24 h)?
A: 4.8 meq/L

Q: And the LDH (24 h)?
A: 76.2 IU/L

Q: What about the Na (24 h) of the same compound?
A: 141.8 meq/L

Q: What about the PL (24 h) of the same compound?
A: 149.8 mg/dL

Q: What about the RALB (24 h) of the same compound?
A: 3.8 g/dL

Q: And the TBIL (24 h)?
A: 0.3 mg/dL

Q: And the TC (24 h)?
A: 76 mg/dL

Q: And the TG (24 h)?
A: 109.6 mg/dL

Q: And the TP (24 h)?
A: 5.6 g/dL

Q: And the gamma-GTP (24 h)?
A: 1 IU/L
